The text below walks through data of US5393768A, “Leukotriene antagonists” (Eli Lilly and Company, priority 1993, dated 1995).

Assay [1] deals with T1, LTD4 evoked contractions of guinea pig ileum (Cavia porcellus, UniProt Q2NNR5).
T1 construct: A section of terminal ileum was removed, the lumen cleaned, and the tissue divided into 2.5 cm. segments; from tissue; host or cells: terminal ileum of male Hartley guinea pigs
T1 sequence (Q2NNR5 1-340): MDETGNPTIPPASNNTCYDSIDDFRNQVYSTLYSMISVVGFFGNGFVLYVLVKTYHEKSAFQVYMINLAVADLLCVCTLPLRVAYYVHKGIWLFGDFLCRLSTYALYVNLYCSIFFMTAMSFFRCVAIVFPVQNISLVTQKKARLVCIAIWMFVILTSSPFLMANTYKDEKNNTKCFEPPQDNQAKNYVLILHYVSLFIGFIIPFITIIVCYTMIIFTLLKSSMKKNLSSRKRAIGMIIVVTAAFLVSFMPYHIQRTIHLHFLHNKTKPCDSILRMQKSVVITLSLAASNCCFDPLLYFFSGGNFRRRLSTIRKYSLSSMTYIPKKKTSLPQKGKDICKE
Kind of assay: LTD4 antagonism, cumulative concentration-response curves (Schild pA2). It is filed as cell-based. The note with it: 30 minute incubation, negative log of KB. As for the experimental part:
For some of the drugs in this series a more detailed analysis of LTD4 antagonism was made. In these experiments, cumulative concentration-response curves were obtained to LTD4 in guinea pig ileum and trachea. This was followed by a 30 minute incubation with various concentrations of the experimental drug. The concentration response curve to LTD4 was then repeated in the presence of the antagonist. Only one concentration of antagonist was used on a single tissue. KB values were calculated by the method of Furchgott [Ann. N.Y. Acad. Sci., 139, 553 (1967)] using the following equation. [formula]
Dose ratio refers to the concentration of agonist required to elicit 50 percent of the maximal response (ED50) in the presence of the antagonist divided by the ED50 in the absence of the antagonist. Calculations were performed with the aid of a computer and a digital plotter.

For assay [2], the system named is LTD4 evoked contractions of guinea pig ileum. Kind of assay: Percent inhibition of LTD4 evoked ileal contractions (single submaximal LTD4 response, 5 minute drug exposure). It is filed as cell-based, guinea pig (male, Hartley). Conditions: Cavia porcellus; for inhibition at 1 µM: Compound concentration 1 × 10^-6 M; for inhibition at 0.1 µM: Compound concentration 1 × 10^-7 M; for inhibition at 0.3 µM: Compound concentration 3 × 10^-7 M; for inhibition at 3 µM: Compound concentration 3 × 10^-6 M; for inhibition at 0.03 µM: Compound concentration 3 × 10^-8 M; for inhibition at 0.01 µM: 5 min, Compound concentration 1 × 10^-8. As for the experimental part: Male, Hartley guinea pigs weighing 200-450 grams were killed by decapitation. A section of terminal ileum was removed, the lumen cleaned, and the tissue divided into 2.5 cm. segments. The ilea were mounted in 10 ml. tissue baths containing Krebs-bicarbonate solution of the following composition in mmoles/-liter: KCl, 4.6; CaCl2 ·2H2 O, 1.2; KH2 PO4, 1.2; MgSO4 ·7H2 O, 1.2; NaCl, 118.2; NaHCO3, 24.8; and dextrose, 10.0. The bath fluid was maintained at 37° C. and aerated with 95 percent oxygen and 5 percent CO2. In addition, the buffer contained 1×10^-6 M atropine to reduce ileal spontaneous activity. Isometric measurements were made with a Grass FTO3C force-displacement transducer and recorded on a Grass polygraph as change in grams of force. A passive force of 0.5 g. was applied to the tissues. After an appropriate equilibration period, single submaximal control responses to pure LTD4 were obtained. Following a five minute exposure of the ileum to an experimental drug, the control concentration of LTD was added to the tissue bath. The response of the ileum to LTD4 in the presence of the drug was compared to the response in the absence of the drug.

By pA2 is commonly meant the negative logarithm of the molar antagonist concentration that doubles the agonist concentration needed for the same response. A higher pA2 goes with higher antagonist potency. By inhibition is commonly meant the change of the read-out against control, counted positive when it falls. A lower inhibition goes with little suppression. Regarding `CCCc1c(COc2ccc3c(=O)cc(C(=O)O)oc3c2CCC)ccc(C(C)=O)c1O` [Example 10, 7-(4-Acetyl-3-hydroxy-2-propylbenzyloxy)-4-oxo-8-propyl-4H-1-benzopyran-2-carboxylic acid], in assay [1], the pA2 is recorded as 7.42. In assay [2], this compound displayed an inhibition at 1 µM of 97%, an inhibition at 0.1 µM of 62% and an inhibition at 0.3 µM of 86%.
Broadly, the Kb is the equilibrium dissociation constant of an antagonist, usually derived from a functional assay. Higher therefore signals a less potent antagonist. In turn, `CCCc1c(COc2ccc(C(=O)O)cc2)ccc(C(C)=O)c1O` [Example 11, 4-(4-Acetyl-3-hydroxy-2-propylbenzyloxy)benzoic acid] gave an antagonist dissociation constant (Kb) in assay [1] of 234 nM. Besides, in assay [2], the inhibition at 1 µM came out at 75% and the inhibition at 3 µM was 94%.
Compound `CCCc1c(COc2ccc(CC(=O)O)cc2)ccc(C(C)=O)c1O` [Example 12, 4-(4-Acetyl-3-hydroxy-2-propylbenzyloxy)phenylacetic acid] had a Kb in assay [1] of 60.3 nM. In assay [2], this compound returned an inhibition at 1 µM of 91%, an inhibition at 0.1 µM of 66%, an inhibition at 0.3 µM of 77% and an inhibition at 0.03 µM of 37%.
In assay [1], `CCCc1c(COc2ccc(C(=O)O)c(O)c2)ccc(C(C)=O)c1O` [Example 13, 4-(4-Acetyl-3-hydroxy-2-propylbenzyloxy)-2-hydroxybenzoic acid] showed a Kb of 26.9 nM. For the same compound, in assay [2], the inhibition at 0.01 µM was 30%, the inhibition at 1 µM came to 97%, at 0.1 µM the inhibition was 69% and testing at 0.3 µM gave an inhibition of 85%. In assay [2], testing at 0.03 µM gave an inhibition of 59%.
`CCCc1c(COc2cccc(C(=O)O)c2)ccc(C(C)=O)c1O` [Example 14, 3-(4-Acetyl-3-hydroxy-2-propylbenzyloxy)benzoic acid]: the antagonist equilibrium constant (Kb) in assay [1] is 1780 nM. In assay [2], this compound had an inhibition at 1 µM of 31% and an inhibition at 3 µM of 67%.
As for `CCCc1c(COc2ccc(CCC(=O)O)cc2)ccc(C(C)=O)c1O` [Example 15, 3-[4-(4-Acetyl-3-hydroxy-2-propylbenzyloxy)phenyl]propionic acid], in assay [1], the Kb is 26.3 nM. Further, in assay [2], the inhibition at 1 µM turned out to be 79%, testing at 0.1 µM gave an inhibition of 59% and the inhibition at 0.3 µM is 76%.
The matching figures for `CCCc1c(COc2ccc(OCC(=O)O)cc2)ccc(C(C)=O)c1O` [Example 16, 4-(4-Acetyl-3-hydroxy-2-propylbenzyloxy)phenoxyacetic acid]: 87.1 nM, 88%, 54% and 88%.
In assay [1], `CCCc1c(COc2ccc(C(=O)O)cc2)ccc(C(=O)c2ccccc2)c1O` [Example 17, 4-(4-Benzoyl-3-hydroxy-2-propylbenzyloxy)benzoic acid] gave an antagonist equilibrium constant (Kb) of 4470 nM. Further, in assay [2], 1 µM produced 5% inhibition and the inhibition at 3 µM came out at 35%.
The matching figures for `CCCCC(=O)c1ccc(COc2ccc(CC(=O)O)cc2)c(CCC)c1O` [Example 18, 4-(4-Pentanoyl-3-hydroxy-2-propylbenzyloxy)phenylacetic acid]: 2090 nM, 21% and 65%.
In assay [1], `CCCc1c(COc2ccc(-c3nnn[nH]3)cc2)ccc(C(C)=O)c1O` [Example 32, 5-[4-(4-Acetyl-3-hydroxy-2-propylbenzyloxy)phenyl]tetrazole] gave an antagonist equilibrium constant (Kb) of 7.76 nM. In assay [2], this compound returned an inhibition at 1 µM of 94%, an inhibition at 0.1 µM of 83% and an inhibition at 0.3 µM of 94%.
In turn, `CCCc1c(COc2ccc(Cc3nnn[nH]3)cc2)ccc(C(C)=O)c1O` [Example 33, 5-[4-(4-Acetyl-3-hydroxy-2-propylbenzyloxy)benzyl]-tetrazole] showed a Kb in assay [1] of 7.59 nM. For the same compound, in assay [2], the inhibition at 0.01 µM came out at 31%, 1 µM produced 100% inhibition, the inhibition at 0.1 µM is 92% and the inhibition at 0.3 µM came out at 94%. The compound also displayed an inhibition at 0.03 µM in assay [2] of 81%.
Take `CCCc1c(COc2ccc(-c3nnn[nH]3)c(O)c2)ccc(C(C)=O)c1O` [Example 34, 5-[4-(4-Acetyl-3-hydroxy-2-propylbenzyloxy)-2-hydroxyphenyl]-tetrazole]: in assay [1], the antagonist dissociation constant (Kb) is 8.71 nM. Besides, in assay [2], the inhibition at 0.01 µM is 50%, the inhibition at 0.1 µM came out at 97%, the inhibition at 0.3 µM is 98% and the inhibition at 0.03 µM was 80%.
Take `CCCc1c(COc2ccc(CCc3nnn[nH]3)cc2)ccc(C(C)=O)c1O` [Example 35, 5-[2-(4-[4-Acetyl-3-hydroxy-2-propylbenzyloxy]phenyl)ethyl]-tetrazole]: the Kb in assay [1] is 8.32 nM. In addition, in assay [2], testing at 0.1 µM gave an inhibition of 84%, 0.3 µM produced 90% inhibition and the inhibition at 0.03 µM came to 63%.
For `CCCc1c(COc2ccc(C(C)c3nnn[nH]3)cc2)ccc(C(C)=O)c1O` (stereo not shown) [Example 36, 5-[1-(4-[4-Acetyl-3-hydroxy-2-propylbenzyloxy]phenyl)ethyl]-tetrazole], in assay [1], the antagonist dissociation constant (Kb) is 12.6 nM. Besides, in assay [2], the inhibition at 0.01 µM was determined as 44%, the inhibition at 1 µM is 94%, testing at 0.1 µM gave an inhibition of 89% and the inhibition at 0.3 µM was 90%. This compound gave an inhibition at 0.03 µM in assay [2] of 70%.
For the compound `CCCc1c(COc2ccc(C(C)(C)c3nnn[nH]3)cc2)ccc(C(C)=O)c1O` [Example 37, 5-[4-(4-Acetyl-3-hydroxy-2-propylbenzyloxy)-α,α-dimethylbenzyl]-tetrazole], the antagonist dissociation constant (Kb) in assay [1] was 17.4 nM. In assay [2], this compound gave an inhibition at 0.1 µM of 81%, an inhibition at 0.3 µM of 90% and an inhibition at 0.03 µM of 56%.
On to `CCCc1c(CSCc2ccc(-c3nnn[nH]3)cc2)ccc(C(C)=O)c1O` [Example 38, 5-[4-(4-Acetyl-3-hydroxy-2-propylbenzylthiomethyl)phenyl]-tetrazole], for which the Kb in assay [1] is 316 nM. In assay [2], this compound returned an inhibition at 0.1 µM of 29% and an inhibition at 0.3 µM of 51%.
In assay [1], `CC(=O)c1ccc(COc2ccc(-c3nnn[nH]3)cc2)c(C)c1O` [Example 39, 5-[4-(4-Acetyl-3-hydroxy-2-methylbenzyloxy)phenyl]-tetrazole] showed an antagonist dissociation constant (Kb) of 91.2 nM. In assay [2], the inhibition at 1 µM came to 90% and testing at 0.3 µM gave an inhibition of 70%.
In assay [1], `CCCc1c(CSc2ccc(-c3nnn[nH]3)cc2)ccc(C(C)=O)c1O` [Example 40, 5-[4-(4 -Acetyl-3-hydroxy-2-propylbenzylthio)phenyl]-tetrazole] had a Kb of 20 nM. In addition, in assay [2], the inhibition at 0.1 µM is 79% and testing at 0.03 µM gave an inhibition of 58%.
`CCCc1c(COc2ccc3cc(-c4nn[nH]n4)ccc3c2)ccc(C(C)=O)c1O` [Example 41, 5-[2-(6-[4-Acetyl-3-hydroxy-2-propylbenzyloxy]naphthyl)]-tetrazole] had a Kb in assay [1] of 12.3 nM. For the same compound, in assay [2], the inhibition at 0.01 µM is 46% and testing at 0.1 µM gave an inhibition of 90%.
Compound `CC(=O)c1ccc(COc2ccc(Cc3nnn[nH]3)cc2)c(CC(C)C)c1O` [Example 42, 5-(4-[4-Acetyl-3-hydroxy-2-(2-methylpropyl)benzyloxy]benzyl)-tetrazole] had a Kb in assay [1] of 20 nM. For the same compound, in assay [2], 0.01 µM produced 34% inhibition, the inhibition at 0.1 µM worked out at 86%, the inhibition at 0.3 µM is 88% and the inhibition at 0.03 µM turned out to be 60%.
As for `CCCc1c(CNc2ccc(Cc3nnn[nH]3)cc2)ccc(C(C)=O)c1O` [Example 43, 5-[4-(4-Acetyl-3-hydroxy-2-propylbenzylamino)benzyl]tetrazole], in assay [1], the antagonist dissociation constant (Kb) is 31.6 nM. In addition, in assay [2], at 0.1 µM the inhibition was 77% and testing at 0.03 µM gave an inhibition of 49%.
For the compound `CCc1c(COc2ccc(Cc3nnn[nH]3)cc2)ccc(C(C)=O)c1O` [Example 44, 5-[4-(4-Acetyl-3-hydroxy-2-ethylbenzyloxy)benzyl)-tetrazole], the antagonist equilibrium constant (Kb) in assay [1] is 12.6 nM. In assay [2], this compound gave an inhibition at 0.01 µM of 41%, an inhibition at 0.1 µM of 88% and an inhibition at 0.03 µM of 78%.
